Test: Thermo Gravity Analysis (TGA) degradation temperature
Format: physicochemical
Details: for temperature at which degradation began (TGA): ramp 10° C. per minute to 300° C.
Protocol: This example relates to experiments performed to determine the degradation temperatures of pyrimethanil technical compounds and fungicide samples. In the present example, pyrimethanil compounds from China (compound 1) and Europe (compound 2) were analyzed by Thermo Gravity Analysis (TGA). The pyrimethanil samples were run in both air and nitrogen atmospheres on the Q5000 TGA instrument (TA Instruments) equipped in open platinum pans, and using standard TGA test methods as follows: select gas 1 and 2, data storage on, ramp at 10° C. per minute to 300° C., data storage off, and end method. An isothermal method was also performed according to standard methods.

Q: Which “temperature at which degradation began (TGA)” value (in air) does the source give for Cc1cc(C)nc(Nc2ccccc2)n1 [compound 1] here?
A: about 120.3 °C

Q: And the “temperature at which degradation was complete (TGA)” value (in both air and nitrogen)?
A: about 200 °C

Q: And the “temperature at which degradation began (TGA)” value (in nitrogen)?
A: about 120.6 °C
